The values that follow come from patent US20250059139A1, “COMPOUNDS FOR TREATMENT OF CANCER” (THE JOHNS HOPKINS UNIVERSITY, priority 2021, published 2025).

Data set [1] concerns the target T1, Human Aryl Hydrocarbon Receptor (AHR) (Homo sapiens, UniProt P35869).
T1 construct: purchased Indigo Biosciences IB06001
T1 sequence (P35869 11-848): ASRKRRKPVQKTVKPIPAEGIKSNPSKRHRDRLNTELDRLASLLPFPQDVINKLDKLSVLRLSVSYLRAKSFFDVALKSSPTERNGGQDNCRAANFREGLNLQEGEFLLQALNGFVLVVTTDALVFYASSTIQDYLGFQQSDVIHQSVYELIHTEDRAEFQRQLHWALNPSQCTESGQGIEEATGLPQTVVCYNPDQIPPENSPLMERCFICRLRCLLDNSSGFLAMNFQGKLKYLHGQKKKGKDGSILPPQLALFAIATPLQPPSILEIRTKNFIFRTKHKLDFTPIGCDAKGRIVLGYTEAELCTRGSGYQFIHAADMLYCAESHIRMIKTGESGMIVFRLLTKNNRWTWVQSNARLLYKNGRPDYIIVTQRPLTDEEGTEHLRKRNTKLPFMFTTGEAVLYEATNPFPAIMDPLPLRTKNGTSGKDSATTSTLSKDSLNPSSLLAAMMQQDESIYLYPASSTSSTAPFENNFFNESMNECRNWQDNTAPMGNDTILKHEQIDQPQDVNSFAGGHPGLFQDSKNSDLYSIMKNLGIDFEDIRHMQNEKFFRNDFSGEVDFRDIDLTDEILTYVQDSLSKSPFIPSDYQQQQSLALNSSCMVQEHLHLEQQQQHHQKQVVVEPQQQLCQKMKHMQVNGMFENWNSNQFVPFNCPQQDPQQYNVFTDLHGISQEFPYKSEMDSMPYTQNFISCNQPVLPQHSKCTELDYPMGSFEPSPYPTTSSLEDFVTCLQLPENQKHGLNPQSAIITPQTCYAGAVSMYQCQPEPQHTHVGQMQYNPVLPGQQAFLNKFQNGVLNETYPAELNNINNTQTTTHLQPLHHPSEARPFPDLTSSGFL
Briefly: Human AHR reporter assay (cell-based  luciferase reporter gene assay). Particulars: n = 4 independent assays/analog; read-out: AHR Agonist Response [EC50] (nM +/−SD).
Text: AHR Agonist Assay. Human Aryl Hydrocarbon Receptor (AHR) Reporter Assay System [Indigo Biosciences (State College, Pa) Cat #IB06001] was used as per the manufacturer's protocol.
Thus, a series of quinoline-3-carboxamide analogs were synthesized focusing upon adduct changes at the aniline-N. These analogs were synthesized as described in Example 1, and were initially screened for their AHR agonist activity using the in vitro human cell-based ARE-driven luciferase reporter gene assay (Table 3).

For data set [2], the system named is CWR22-RH human prostate cancer PDXs. Kind of data set: In vivo growth of CWR22-RH xenografts in castrate NSG male mice. Particulars: for CWR22-RH Tumor Growth (% inhibition +/− SD): castrate mice treated orally over a 3 week period, 10 mg/kg/d, n = 5/group; for growth inhibitor (GI) activity on CWR22-RH xenografts (SAR summary): in vivo. The text has this: Prostate Cancer Models. The source, history, and characteristics of the human prostate cancer cell lines and PDXs used, as well as cell culture conditions for their in vitro maintenance and the in vivo protocol for xenograft growth in triple immune-deficient NSG (i.e. NOD.Cg-PrkdcScidIl2rgtmlWji/Szj), adult (>8 week old) male mice obtained from the Sidney Kimmel Comprehensive Cancer Center (SKCCC) Animal Core Facility are described previously (Isaacs 2013; Brennen et al. JCI Insight. 2021, 6(8):e146827; Zhu et al. Oncogene 2020, 39(45): 6935-6949). Similar information concerning the TRAMP-C2 and B6CaP mouse prostate cancers originating in a C57BL/6J male mice are described previously (Foster et al. Cancer Res. 1997, 57: 3325-3330; Simons et al. Oncotarget. 2019, 10(64):6845-6854). In vitro growth curves were determined as described (Isaacs 2013). In vivo growth response to oral daily TasQ (10 mg/kg/d) of TRAMP-C2 mouse prostate cancers was evaluated in C57BL/6J syngeneic wild type vs. NOX-2 vs. iNOS null male mice obtained from Jackson Laboratory (Bar Harbor, ME). Growth response to oral daily TasQ (10 mg/kg/d) of TRAMP-C2 and B6CaP mouse prostate cancers was also evaluated in S100A9 null C57BL′6J male mice obtained from Dmitry Gabrilovich (Wistar Institute). All lines were mycoplasma negative using the MycoSensor PCR Assay kit (Agilent Technologies) and genetically authenticated within the last 6 months using short tandem repeat profiling conducted by the Johns Hopkins Genetic Resource Core Facility. In vitro growth curves were determined as described (Isaacs 2013). Growth response to daily oral TasQ vs. ESATA-20 (both at 10 mg/kg/d) of Myc-CaP-CR mouse prostate cancer was evaluated in syngeneic FVB/NJ castrate male mice from Jackson Laboratory. Animal studies were conducted according to animal protocols approved by Johns Hopkins Animal Care and Use Committee. Tumor volume measurements were as described previously (id.). In vivo experiments were repeated multiple independent times for each model used with 3-5 mice per treatment grouping.
Oral Drug treatment. TasQ at the indicated dose was initially dissolved with equal molar 1 N sodium hydroxide. This solution was diluted with sterile water and the mixture stirred for 1 hr. The pH was then adjusted with 1 N HCl to 8.9 and 200 μL given daily via oral gavage.
Due to these combined effects, maximal growth inhibition of CWR22-RH, a castration-resistant prostate cancer patient-derived xenograft (PDX), is obtained as maintenance therapy with oral daily dosing of ≥5 mg/kg/d (FIG. 1). […] Previous studies documented that in vitro treatment of human prostate cancer cells (LNCaP) with 1-10 μM TasQ rapidly (i.e., ≤1 day) induces the transcription of a series of AHR target genes (e.g., Cyp1a1, Cyp1b1, AHRR, TPARP, GDF15) (Olsson 2010). […]

A further data set has as its target T2, fl-HDAC4 (wild-type) (Homo sapiens, UniProt P56524).
T2 construct: Full-length (fl) [A.A. 1-1082] recombinant human histone deacetylase 4 (rhHDAC4) protein; FLAG (N); GST (given as 'with or without'); made in house; host or cells: HEK293-T
Briefly: SPR binding analysis TasQ / fl-HDAC4. Particulars: compound at >30 μM in solution, Zn2+ present. Here is the method:
Surface Plasmon Resonance (SPR) Binding Analysis. SPR analysis was performed on the Biacore 3000™ system using CM5 sensor chips, certified buffers (HBS-P—10 mM HEPES, 0.15 M NaCl, pH 7.4, containing 0.005% v/v Surfactant P; HBS-EP-HBS-P with 3 mM EDTA) and reagents for immobilization and surface regeneration from Biacore, GE Healthcare, Uppsala Sweden. Evaluation of sensorgrams was performed using the BIA-evaluation Software version 4.1 and GraphPad Prism 4. Buffer of protein reagents were changed to HBS-P on Zeba spin desalting columns (Thermo Scientific) prior to being used in SPR analysis (Isaacs 2013).
A. Binding of wild-type and mutant forms of HDAC4 to immobilized TasQ. TasQ (ABR-215050; mol wt 406.4) was dissolved as a 40 mM solution in water with 1.5 equivalents of NaOH. TasQ with an amino-linker [i.e. —(CH2)2O(CH2)2—NH2](ABR-225180) in amide nitrogen position was used for amine coupling on to a Biacore CM5 sensor chip. A 1 mg/mL solution of ABR-225180 in HBS-P buffer was prepared and immobilized on a CM5 chip by injection at a flow rate of 5 or 10 μL/min until a stable response level was reached. Interaction of various HDAC4 forms with immobilized TasQ was studied by injection over this surface in HBS-P buffer containing 10 or 20 μM ZnCl2. Bound HDAC4 was removed by a pulse of 3 mM EDTA in HBS-P or 0.5 to 6.25 mM NaOH in water. In a second series of experiments, the ability of TasQ in solution to displace this binding was studied by pre-incubation of HDAC4 with TasQ as competitor.
B. Binding of TasQ to immobilized HDAC4 and NCoR1. Different variants of HDAC4 (full-length wild-type and mutant forms and the truncated protein) and full-length NCoR1 were immobilized on a CM5 chip using random amine coupling. Briefly, proteins were dissolved in 10 mM sodium acetate buffer at pH 5.0 or 5.5 and immobilized to the aimed level using the standard protocol from GE Healthcare. Serially diluted TasQ in HBS-P buffer with 10 or 20 μM Zn was injected (for 2 or 3 min at a flow rate of 30 μl/min) either directly or after a 1st injection of 1 mM DTT to reduce cysteines in the zinc conformation site in HDAC4. Regeneration was made with a short pulse of HBS-EP.
To evaluate the conformational requirements for TasQ's binding to HDAC4, surface plasmon resonance (SPR) analysis was utilized. To maximize conformational flexibility, TasQ is immobilized onto the surface of a Biacore CM5 sensor chip via an amino-linker [i.e. —(CH2)2—O—(CH2)2—NH2] in its amide nitrogen position.
By comparison, Linomide even at >30 μM in solution binds only 10-15% of the immobilized fl-HDAC4 protein despite the presence of Zn^+2 (FIG. 14). […] The fact that the KD for binding of soluble TasQ to immobilized fl-HDAC4 is higher than the KD for binding of soluble fl-HDAC4 with immobilized TasQ is predictable. This is because the conformational dynamics of fl-HDAC4 protein immobilized on the chip are more restrictive due to the multiple random amine coupling than the conformational dynamics of TasQ immobilized via a single amino-linker.
To address this possibility, a competitive binding assay was developed based upon the ability of TasQ in solution to compete with immobilized TasQ on the SPR-chip for binding to fl-HDAC4.

The subject of the next data set is mCRPC patients. Particulars: human, in vivo; cited from earlier work.

T2 sequence (P56524 whole entry): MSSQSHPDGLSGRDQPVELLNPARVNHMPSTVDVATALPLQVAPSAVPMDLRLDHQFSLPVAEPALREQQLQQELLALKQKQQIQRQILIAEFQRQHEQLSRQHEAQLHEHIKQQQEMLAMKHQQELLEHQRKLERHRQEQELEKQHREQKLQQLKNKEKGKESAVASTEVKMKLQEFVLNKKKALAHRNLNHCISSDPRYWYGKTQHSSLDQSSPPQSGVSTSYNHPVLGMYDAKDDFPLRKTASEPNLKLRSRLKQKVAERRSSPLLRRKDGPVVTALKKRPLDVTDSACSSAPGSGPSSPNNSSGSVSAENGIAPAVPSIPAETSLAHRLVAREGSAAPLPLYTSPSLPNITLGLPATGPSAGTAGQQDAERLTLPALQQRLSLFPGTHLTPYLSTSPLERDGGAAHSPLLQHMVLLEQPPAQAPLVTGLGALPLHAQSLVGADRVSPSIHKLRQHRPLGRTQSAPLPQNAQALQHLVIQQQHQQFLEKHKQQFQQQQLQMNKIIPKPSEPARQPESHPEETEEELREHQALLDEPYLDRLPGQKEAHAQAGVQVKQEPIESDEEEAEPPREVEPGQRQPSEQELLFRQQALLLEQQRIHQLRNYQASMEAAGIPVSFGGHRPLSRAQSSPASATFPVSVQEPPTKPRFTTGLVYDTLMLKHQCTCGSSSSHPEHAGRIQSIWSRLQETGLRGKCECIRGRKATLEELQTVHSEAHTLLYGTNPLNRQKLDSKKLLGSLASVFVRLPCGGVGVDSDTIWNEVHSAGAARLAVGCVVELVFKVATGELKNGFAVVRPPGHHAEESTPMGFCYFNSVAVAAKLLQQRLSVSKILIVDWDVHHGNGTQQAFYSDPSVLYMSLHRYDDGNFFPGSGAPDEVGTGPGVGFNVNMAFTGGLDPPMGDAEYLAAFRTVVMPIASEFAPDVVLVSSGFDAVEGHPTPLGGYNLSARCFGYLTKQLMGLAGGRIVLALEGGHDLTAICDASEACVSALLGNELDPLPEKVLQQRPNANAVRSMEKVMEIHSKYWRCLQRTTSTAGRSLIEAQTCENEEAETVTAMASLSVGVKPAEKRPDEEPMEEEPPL

With `C[C@]12CC[C@H](O)CC1=CC[C@@H]1[C@@H]2CC[C@]2(C)C(c3cccnc3)=CC[C@@H]12` [Abiraterone], the EC50 in data set [1] is > 50000 nM. Further, the “CWR22-RH Tumor Growth (% inhibition +/− SD)” value in data set [2] was <10%.
`COC(=O)c1c(O)c2c(OC)cccc2n(C)c1=O` [ESATA-2]: the EC50 in data set [1] was > 100000 nM. In addition, in data set [2], the “growth inhibitor (GI) activity on CWR22-RH xenografts (SAR summary)” value (“growth inhibitor (GI) activity” below) is “no GI activity”.
On to `COc1cccc2c1c(O)c(C(=O)Nc1ccc(C(F)(F)F)cc1)c(=O)n2C` [ESATA-4], for which the EC50 in data set [1] worked out at 0.5 nM. In data set [2], the “CWR22-RH Tumor Growth (% inhibition +/− SD)” value is listed as 86 +/− 9% and the “growth inhibitor (GI) activity” value is recorded as “high GI activity”.
As to `COc1cccc2c1CC(C(=O)N(C)c1ccc(C(F)(F)F)cc1)C(=O)N2C` (stereo not drawn) [ESATA-5], the EC50 in data set [1] came out at 300 nM.
For the compound `CCCCCCCN(C(=O)c1c(O)c2c(OC)cccc2n(C)c1=O)c1ccc(C(F)(F)F)cc1` [ESATA-11], the EC50 in data set [1] was 50 nM.
For the compound `COc1cccc2c1c(O)c(C(=O)N(CCOCc1ccccc1)c1ccc(C(F)(F)F)cc1)c(=O)n2C` [ESATA-14], the EC50 in data set [1] came to 1100 nM. Also, in data set [2], the “CWR22-RH Tumor Growth (% inhibition +/− SD)” value is <10% and the “growth inhibitor (GI) activity” value is on record as “no GI activity”.
Consider `COc1cccc2c1c(O)c(C(=O)N(Cc1ccccc1)c1ccc(C(F)(F)F)cc1)c(=O)n2C` [ESATA-18], for which the EC50 in data set [1] came to 10700 nM. Besides, in data set [2], the “CWR22-RH Tumor Growth (% inhibition +/− SD)” value is given as 50 +/− 18%.
For the compound `COc1cccc2c1c(O)c(C(=O)N(c1ccc(C(F)(F)F)cc1)C1CCC(C(F)(F)F)CC1)c(=O)n2C` (stereo not drawn) [ESATA-22], in data set [1], the EC50 is 12000 nM. Further, in data set [2], the “CWR22-RH Tumor Growth (% inhibition +/− SD)” value is reported as <10% and the “growth inhibitor (GI) activity” value is recorded as “no GI activity”.
`COc1cccc2c1c(O)c(C(=O)N/N=C/c1ccc(C(F)(F)F)cc1)c(=O)n2C` [ESATA-24]: the EC50 in data set [1] is 800 nM.
Consider `CCOc1c(C(=O)N(c2ccc(C(F)(F)F)cc2)C2CCCCC2)c(=O)n(C)c2cccc(OC)c12` [ESATA-25], for which the EC50 in data set [1] turned out to be 10500 nM. Besides, in data set [2], the “CWR22-RH Tumor Growth (% inhibition +/− SD)” value is listed as <10% and the “growth inhibitor (GI) activity” value is “no GI activity”.
For `COc1cccc2c1c(OCCNC(=O)OC(C)(C)C)c(C(=O)N(c1ccc(C(F)(F)F)cc1)C1CCCCC1)c(=O)n2C` [ESATA-26] the same measures were > 50000 nM, <10% and “no GI activity”.
Take `COc1cccc2c1c(O)c(C(=O)N(c1ccccc1)C(C)C)c(=O)n2C` [ESATA-27]: in data set [1], the EC50 turned out to be 850 nM. Also, in data set [2], the “CWR22-RH Tumor Growth (% inhibition +/− SD)” value was <10%.
With `COc1cccc2c1c(O)c(C(=O)N(c1ccccc1)C1CCCCC1)c(=O)n2C` [ESATA-28], in data set [1], the EC50 is 1300 nM. The “CWR22-RH Tumor Growth (% inhibition +/− SD)” value in data set [2] is given as <10%.
For the compound `COc1cccc2c1c(O)c(C(=O)N(c1ccc(C(F)(F)F)cc1)C(C)C)c(=O)n2C` [ESATA-30], the EC50 in data set [1] was determined as 1400 nM. Further, in data set [2], the “CWR22-RH Tumor Growth (% inhibition +/− SD)” value is on record as <10% and the “growth inhibitor (GI) activity” value was “no GI activity”.
Consider `CN(C(=O)c1c(O)c2ccccc2n(C)c1=O)c1ccccc1` [Linomide, roquinimex], for which the “fraction of the immobilized fl-HDAC4 protein bound” value at fl-HDAC4 (wild-type) is 10-15%. For the same compound, the “adverse events in Phase III clinical trials” value with mCRPC patients was “several cases of pericarditis and neuropathy”.
